Values of other authors, collected in patent US12133911B2, “Formulations to achieve rapid dissolution of drug from spray-dried dispersions in capsules” (Capsugel Belgium NV, priority 2015, dated 2024).

Conditions: molality (moles of solute per unit mass) of a saturated solution in water

SMILES	Water Solub.
OC[C@@H](O)[C@@H](O)[C@H](O)[C@@H](O)CO [sorbitol]	4.56 mol/kg
OC[C@@H](O)[C@H](O)[C@@H](O)CO [xylitol]	4.11 mol/kg
OC[C@@H](O)[C@@H](O)[C@H](O)[C@H](O)CO [mannitol]	0.99 mol/kg
[Cl-].[K+] [KCl, potassium chloride]	9.40 mol/kg
O=C(CO)[C@@H](O)[C@H](O)[C@H](O)CO [fructose]	3.89 mol/kg
